# According to patent US10287305B2, “Substituted piperidine compound and use thereof” (Takeda Pharmaceutical Company Limited, priority 2016, dated 2019):
# Target: human orexin type 2 receptor (hOX2R) (Homo sapiens (Human), UniProt O43614)
# Experiment: Measurement of orexin type 2 receptor agonist activity (Experimental Example 2-1, FLIPR TETRA, intracellular Ca2+)
# Type: cell-based
# Conditions: CHO dhfr- cells expressing hOX2R; for Emax at 30 µM: value at 30 uM concentration, orexin B as full agonist = 100%; for Emax: read-out: Emax (%)
# [1] = agonist activity, 10 nM human orexin B = 100%
# human orexin type 2 receptor (hOX2R), sequence (O43614 whole entry): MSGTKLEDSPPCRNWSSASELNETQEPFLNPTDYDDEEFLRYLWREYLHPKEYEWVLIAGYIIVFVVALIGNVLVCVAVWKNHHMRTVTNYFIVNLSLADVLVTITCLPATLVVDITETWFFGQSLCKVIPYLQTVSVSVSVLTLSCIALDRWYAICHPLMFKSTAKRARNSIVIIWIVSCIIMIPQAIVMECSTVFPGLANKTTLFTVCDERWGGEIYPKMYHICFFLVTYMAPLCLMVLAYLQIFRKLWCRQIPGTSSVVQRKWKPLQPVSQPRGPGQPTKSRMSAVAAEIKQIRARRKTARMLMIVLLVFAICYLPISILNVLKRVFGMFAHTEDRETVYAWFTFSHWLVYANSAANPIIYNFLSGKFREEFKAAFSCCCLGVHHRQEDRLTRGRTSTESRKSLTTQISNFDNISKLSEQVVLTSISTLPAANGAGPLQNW
SMILES,EC50 [1] [nM],Emax at 30 µM [%],"EC50 (FLIPR TETRA, Fluo-4AM) [nM]","Emax (FLIPR TETRA, Fluo-4AM) [%]"
"CC(=O)N1CCC[C@H](NS(C)(=O)=O)[C@@H]1CO[C@H]1CC[C@@H](C2CCCCC2)CC1 [Example 71, N-(cis-1-acetyl-2-(((1s,4s)-1,1′-bi(cyclohexyl)-4-yloxy)methyl)piperidin-3-yl)methanesulfonamide]",4300,83,–,–
"CC(C)[C@H]1CC[C@@H](OC[C@H]2[C@@H](NS(C)(=O)=O)CCCN2C(=O)COc2ccn(C)n2)CC1 [Example 84, N-((2R,3S)-2-(((cis-4-isopropylcyclohexyl)oxy)methyl)-1-(((1-methyl-1H-pyrazol-3-yl)oxy)acetyl)piperidin-3-yl)methanesulfonamide]",840,98,–,–
"CC(C)[C@H]1CC[C@@H](OC[C@H]2[C@@H](NS(C)(=O)=O)CCCN2C(=O)C2CCC(=O)N2)CC1 (stereo partly drawn) [Example 87, N-(cis-2-(((cis-4-isopropylcyclohexyl)oxy)methyl)-1-(5-oxoprolyl)piperidin-3-yl)methanesulfonamide]",4900,82,–,–
"CC(C)[C@H]1CC[C@@H](OC[C@H]2[C@@H](NS(C)(=O)=O)CCCN2C(=O)C2CC(=O)C2)CC1 [Example 91, N-((2R,3S)-2-(((cis-4-isopropylcyclohexyl)oxy)methyl)-1-((3-oxocyclobutyl)carbonyl)piperidin-3-yl)methanesulfonamide]",39,89,–,–
"CC(C)[C@H]1CC[C@@H](OC[C@H]2[C@@H](NS(C)(=O)=O)CCCN2C(=O)C2CC(O)C2)CC1 (stereo partly drawn) [Example 92, N-((2R,3S)-1-((3-hydroxycyclobutyl)carbonyl)-2-(((cis-4-isopropylcyclohexyl)oxy)methyl)piperidin-3-yl)methanesulfona]",370,92,–,–
"CNC(=O)N1CCC[C@H](NS(C)(=O)=O)[C@@H]1CO[C@H]1CC[C@@H](C(C)C)CC1 [Example 102, (2R,3S)-2-(((cis-4-isopropylcyclohexyl)oxy)methyl)-N-methyl-3-((methylsulfonyl)amino)piperidine-1-carboxamide]",1.2,101,–,–
"[2H]C1C([2H])[C@]([2H])(C(C)C)C([2H])C([2H])[C@]1([2H])OC[C@H]1[C@@H](NS(C)(=O)=O)CCCN1C(C)=O (stereo partly drawn) [Example 103, N-(cis-1-acetyl-2-(((cis-4-isopropyl(1,2,3,4,5,6-d6)cyclohexyl)oxy)methyl)piperidin-3-yl)methanesulfonamide]",170,98,–,–
"[2H]C1C([2H])[C@]([2H])(C(C)C)C([2H])C([2H])[C@]1([2H])OC[C@H]1[C@@H](NS(C)(=O)=O)CCCN1C(=O)NCC (stereo partly drawn) [Example 104, cis-N-ethyl-2-(((cis-4-isopropyl(1,2,3,4,5,6-d6)cyclohexyl)oxy)methyl)-3-((methylsulfonyl)amino)piperidine-1-carboxamide]",2.2,100,–,–
"CC(=O)N1CCC[C@H](NS(C)(=O)=O)[C@@H]1CO[C@H]1CC[C@@H](c2cccc(F)c2)CC1 [Example 147, N-((2R,3S)-1-acetyl-2-(((cis-4-(3-fluorophenyl)cyclohexyl)oxy)methyl)piperidin-3-yl)methanesulfonamide]",–,–,10,100
"CCNC(=O)N1CCC[C@H](NS(C)(=O)=O)[C@@H]1CO[C@H]1CC[C@@H](c2cccc(F)c2)CC1 [Example 148, (2R,3S)-N-ethyl-2-(((cis-4-(3-fluorophenyl)cyclohexyl)oxy)methyl)-3-((methylsulfonyl)amino)piperidine-1-carboxamide]",–,–,0.053,103
"CS(=O)(=O)N[C@H]1CCCN(C(=O)[C@H]2CCOC2)[C@H]1CO[C@H]1CC[C@@H](c2ccccc2)CC1 [Example 149, N-(cis-2-(((cis-4-phenylcyclohexyl)oxy)methyl)-1-((3S)-tetrahydrofuran-3-ylcarbonyl)piperidin-3-yl)methanesulfonamide]",–,–,25,100
"CS(=O)(=O)N[C@H]1CCCN(C(=O)[C@@H]2CCOC2)[C@H]1CO[C@H]1CC[C@@H](c2ccccc2)CC1 [Example 150, N-(cis-2-(((cis-4-phenylcyclohexyl)oxy)methyl)-1-((3R)-tetrahydrofuran-3-ylcarbonyl)piperidin-3-yl)methanesulfonamide]",–,–,30,99
"CS(=O)(=O)N[C@H]1CCCN(C(=O)CC#N)[C@H]1CO[C@H]1CC[C@@H](c2ccccc2)CC1 [Example 180, N-((2R,3S)-1-(cyanoacetyl)-2-(((cis-4-phenylcyclohexyl)oxy)methyl)piperidin-3-yl)methanesulfonamide]",–,–,17,106
"CS(=O)(=O)CC(=O)N1CCC[C@H](NS(C)(=O)=O)[C@@H]1CO[C@H]1CC[C@@H](c2ccccc2)CC1 [Example 181, N-((2R,3S)-1-((methylsulfonyl)acetyl)-2-(((cis-4-phenylcyclohexyl)oxy)methyl)piperidin-3-yl)methanesulfonamide]",–,–,–,89
"CCC(=O)N1CCC[C@H](NS(C)(=O)=O)[C@@H]1CO[C@H]1CC[C@@H](c2ccccc2)CC1 [Example 182, N-((2R,3S)-2-(((cis-4-phenylcyclohexyl)oxy)methyl)-1-propionylpiperidin-3-yl)methanesulfonamide]",–,–,2.3,92
"CS(=O)(=O)N[C@H]1CCCN(C(=O)[C@H]2CCC(=O)O2)[C@H]1CO[C@H]1CC[C@@H](c2ccccc2)CC1 [Example 183, N-((2R,3S)-1-(((2R)-5-oxotetrahydrofuran-2-yl)carbonyl)-2-(((cis-4-phenylcyclohexyl)oxy)methyl)piperidin-3-yl)methanesulfonamide]",–,–,40,94
"CS(=O)(=O)N[C@H]1CCCN(C(=O)[C@@H]2CCC(=O)O2)[C@H]1CO[C@H]1CC[C@@H](c2ccccc2)CC1 [Example 184, N-((2R,3S)-1-(((2S)-5-oxotetrahydrofuran-2-yl)carbonyl)-2-(((cis-4-phenylcyclohexyl)oxy)methyl)piperidin-3-yl)methanesulfonamide]",–,–,9.3,93
"CS(=O)(=O)N[C@H]1CCCN(C(=O)CO)[C@H]1CO[C@H]1CC[C@@H](c2ccccc2)CC1 [Example 185, N-((2R,3S)-1-glycoloyl-2-(((cis-4-phenylcyclohexyl)oxy)methyl)piperidin-3-yl)methanesulfonamide]",–,–,21,98
"CS(=O)(=O)N[C@H]1CCCN(C(=O)C2(C#N)CC2)[C@H]1CO[C@H]1CC[C@@H](c2ccccc2)CC1 [Example 187, N-((2R,3S)-1-((1-cyanocyclopropyl)carbonyl)-2-(((cis-4-phenylcyclohexyl)oxy)methyl)piperidin-3-yl)methanesulfonamide]",–,–,370,93
"C[C@H](O)C(=O)N1CCC[C@H](NS(C)(=O)=O)[C@@H]1CO[C@H]1CC[C@@H](c2ccccc2)CC1 [Example 188, N-((2R,3S)-1-((2S)-2-hydroxypropanoyl)-2-(((cis-4-phenylcyclohexyl)oxy)methyl)piperidin-3-yl)methanesulfonamide]",–,–,23,97
"[2H]C([2H])([2H])OC(=O)N1CCC[C@H](NS(C)(=O)=O)[C@@H]1CO[C@H]1CC[C@@H](c2ccccc2)CC1 [Example 191, methyl-d3 (2R,3S)-3-((methylsulfonyl)amino)-2-(((cis-4-phenylcyclohexyl)oxy)methyl)piperidine-1-carboxylate]",–,–,2.9,107
